From patent US12077778B2, “Methods of generating human inner ear sensory epithelia and sensory neurons” (INDIANA UNIVERSITY RESEARCH AND TECHNOLOGY CORPORATION, priority 2015, dated 2024)

Tests used:
Type in all cases: cell-based, human
[1] = system: Matrigel-embedded hPSC aggregates; assay: Otic pit/vesicle formation in Matrigel-embedded day 12 aggregates treated with Wnt agonist
Excerpt: To promote PAX2 expression and vesicle formation, we began testing various signaling modulators (FIGS. 12A-12C). […] We suspected that extracellular matrix could provide structural support for vesicle formation; thus, we transferred day 12 aggregates to Matrigel droplets in a minimal media (FIG. 4A). In these cultures, we observed radial production of migratory cells, but no vesicle-like structures or PAX2^+ cells were apparent (FIG. 2B). Wnt activation seems to be essential for otic, but not epibranchial development, in vivo and can enhance the production of mouse inner ear organoids in vitro^4,19-21. Remarkably, in 90.9±5.2% of Matrigel®-embedded aggregates treated with a Wnt signaling agonist, CHIR99021, between days 12-16 (n=84, 7 experiments), we witnessed epithelial protrusions reminiscent of the otic pits that precede vesicle development in vivo (FIG. 4C). We determined that the otic pit-like structures were PAX2^+ PAX8^+ SOX2^+ SOX10^+ JAG1^+, confirming otic identity (FIGS. 4D-4H). […] The aggregates were resuspended in ice cold undiluted GFR Matrigel and placed in approximately 25 μl droplets on the surface of a 100 mm bacterial culture plate. After at least 30 minutes of incubation at 37° C., the droplets were bathed in 10 ml of OMNI containing 3 μM CHIR99021. For non-droplet otic induction, the aggregates were washed and plated individually into each well of a 24-well low cell adhesion plate in OMNI containing 3 μM CHIR and 1% GFR Matrigel. After 18 days of differentiation, the CHIR was removed from the medium by washing and the droplet aggregates were moved to a floating culture. Droplets were carefully dislodged using a wide-mouth […] tip and transferred to 75 ml of fresh OMNI in a 125 ml disposable spinner flask (Corning). Spinner flasks were maintained on an in-incubator stir plate (Thermo Scientific) at 65 RPM for up to 180 days of differentiation. For some experiments, the aggregates were maintained in individual wells of 24-well low-cell adhesion plates in 1 ml of OMM on an in-incubator orbital shaker (Thermo Scientific) for up to 140 days. […]

hPS cell aggregates = assay: Otic placode-like cell induction by CHIR treatment on day 8; settings: CHIR 3 μM added on day 8
Procedure: hPSC differentiation. To start differentiation, hPSC cells were dissociated with StemPro Accutase (Invitrogen) and distributed, 5,000 cells per well, onto 96-well V-bottom plates in E8 medium containing 20 μM Y-27632 (Stemgent) and Normocin. Following a 48 hour incubation, the aggregates were transferred to 96-well U-bottom plates in 100 μl of Chemically Defined Medium (CDM) containing 4 ng ml^−1 FGF-2 (Peprotech), 10 μM SB-431542 (Stemgent), and, for some experiments, 2.5 ng ml^−1 BMP4 (Stemgent), and 2% Growth Factor Reduced (GFR) Matrigel (Corning) to initiate non-neural induction—i.e. differentiation day 0. CDM contained a 50:50 mixture of F-12 Nutrient Mixture with GlutaMAX (Gibco) and Iscove's Modified Dulbecco's Medium with GlutaMAX (IMDM; Gibco) additionally supplemented with 0.5% Bovine Serum Albumin (BSA), 1× Chemically Defined Lipid Concentrate (Invitrogen), […] (Sigma), 15 μg ml^−1 Transferrin (Sigma), 450 μM Mono-Thioglycerol, and Normocin (see Table 1 for a detailed formulation). […] For some experiments, CDM containing a 18 μM CHIR99021 (3 μM final concentration; Stemgent) was added to the pre-existing 125 μl of media in each well—we determined that this treatment is optional for inner ear organoid production, but may improve induction of otic placode-like cells. […]

OEPD-induced aggregates = assay: qPCR of PAX8/PAX2 expression after WNT and FGF signaling modulation, days 8-10; settings: one exploratory experiment
Procedure: Thus, we changed strategies by lengthening the initial culture phase to 12 days (with addition of fresh media on day 8) and testing the effect of transitioning the aggregates to Matrigel™ droplets.
Quantitative PCR. Analysis was performed as previously described on an ABI PRISM 7900HT Sequence Detection System (Applied Biosystems) or a Bio-Rad CFX96 quantitative PCR machine (Bio-Rad)^6. Data were normalized to L27 expression (internal control) and the fold change was calculated relative to Ct values from d0 WA25 aggregates using the ΔΔCt method. Unless stated otherwise, data represent at least 3 separate biological samples from separate experiments. All indicators of statistical significance refer to comparisons between a given condition and the control group. Refer to Table 4 for primer details.

## Cc1c[nH]c(-c2cnc(NCCNc3ccc(C#N)cn3)nc2-c2ccc(Cl)cc2Cl)n1 [CHIR99021]
[1]; CHIR99021 between days 12-16, n=84, 7 experiments
  aggregates with epithelial protrusions reminiscent of otic pits: 90.9±5.2%
[1]; CHIR between days 12-18
  PAX8+ PAX2+ SOX10+ vesicles evaginating from the outer epithelium: 10-30 vesicles per aggregate
[1]; Matrigel embedding with continued CHIR, days 12-18, >100 aggregates, four independent experiments
  aggregates with otic vesicle formation: > 95%
hPS cell aggregates
  PAX2+ cells by day 12: induces small patches of PAX2+ cells
OEPD-induced aggregates
  PAX2 expression (qPCR) compared to DMSO controls: only had a modest positive or negative impact on PAX2 expression
